Results as given in PubChem BioAssay AID1982 (Sanford-Burnham Center for Chemical Genomics, 2009).
Calls of active or inactive are those of the source. No rule for the calls is given here.

Legend:
Experiment in all cases: kinase panel binding selectivity, selectivity assay, biochemical, KINOMEscan (AID 1982)
[1] = target: BDNF/NT-3 growth factors receptor (Homo sapiens) (UniProt Q16620); details: KINOMEscan 353-kinase binding panel, qPCR; TRKB; at 10 µM; stronger effect = lower value
CAMK4 = details: KINOMEscan 353-kinase binding panel, qPCR, at 10 µM, stronger effect = lower value
CSNK1A1L = details: KINOMEscan 353-kinase binding panel, qPCR, at 10 µM, stronger effect = lower value
[2] = target: Casein kinase I isoform delta (Homo sapiens) (UniProt P48730); details: KINOMEscan 353-kinase binding panel, qPCR; CSNK1D; at 10 µM; stronger effect = lower value
[3] = target: Cyclin-dependent kinase 2 (Homo sapiens) (UniProt P24941); details: KINOMEscan 353-kinase binding panel, qPCR; CDK2; at 10 µM; stronger effect = lower value
[4] = target: Cyclin-dependent kinase 8 (Homo sapiens) (UniProt P49336); details: KINOMEscan 353-kinase binding panel, qPCR; CDK8; at 10 µM; stronger effect = lower value
DLK = details: KINOMEscan 353-kinase binding panel, qPCR, at 10 µM, stronger effect = lower value
[5] = target: Dual specificity protein kinase CLK1 (Homo sapiens) (UniProt P49759); details: KINOMEscan 353-kinase binding panel, qPCR, at 10 µM, stronger effect = lower value
ERK8 = details: KINOMEscan 353-kinase binding panel, qPCR, at 10 µM, stronger effect = lower value
FGFR4 = details: KINOMEscan 353-kinase binding panel, qPCR, at 10 µM, stronger effect = lower value
[6] = target: Fibroblast growth factor receptor 1 (Homo sapiens) (UniProt P11362); details: KINOMEscan 353-kinase binding panel, qPCR; FGFR1; at 10 µM; stronger effect = lower value
JAK1(Kin.Dom.2) = details: KINOMEscan 353-kinase binding panel, qPCR, at 10 µM, stronger effect = lower value
JNK1 = details: KINOMEscan 353-kinase binding panel, qPCR, at 10 µM, stronger effect = lower value
[7] = target: MAP kinase-activated protein kinase 5 (Homo sapiens) (UniProt Q8IW41); details: KINOMEscan 353-kinase binding panel, qPCR; MAPKAPK5; at 10 µM; stronger effect = lower value
MLK1 = details: KINOMEscan 353-kinase binding panel, qPCR, at 10 µM, stronger effect = lower value
MYO3B = details: KINOMEscan 353-kinase binding panel, qPCR, at 10 µM, stronger effect = lower value
[8] = target: Mitogen-activated protein kinase 1 (Homo sapiens) (UniProt P28482); details: KINOMEscan 353-kinase binding panel, qPCR; ERK2; at 10 µM; stronger effect = lower value
[9] = target: Mitogen-activated protein kinase 9 (Homo sapiens) (UniProt P45984); details: KINOMEscan 353-kinase binding panel, qPCR; JNK2; at 10 µM; stronger effect = lower value
NDR2 = details: KINOMEscan 353-kinase binding panel, qPCR, at 10 µM, stronger effect = lower value
PFTK1 = details: KINOMEscan 353-kinase binding panel, qPCR, at 10 µM, stronger effect = lower value
[10] = target: RAF proto-oncogene serine/threonine-protein kinase (Homo sapiens) (UniProt P04049); details: KINOMEscan 353-kinase binding panel, qPCR; RAF1; at 10 µM; stronger effect = lower value
RPS6KA2(Kin.Dom.1) = details: KINOMEscan 353-kinase binding panel, qPCR, at 10 µM, stronger effect = lower value
RPS6KA6(Kin.Dom.2) = details: KINOMEscan 353-kinase binding panel, qPCR, at 10 µM, stronger effect = lower value
[11] = target: Receptor-type tyrosine-protein kinase FLT3 (Homo sapiens) (UniProt P36888); details: KINOMEscan 353-kinase binding panel, qPCR, at 10 µM, stronger effect = lower value
[12] = target: STE20-like serine/threonine-protein kinase (Homo sapiens) (UniProt Q9H2G2); details: KINOMEscan 353-kinase binding panel, qPCR; SLK; at 10 µM; stronger effect = lower value
STK35 = details: KINOMEscan 353-kinase binding panel, qPCR, at 10 µM, stronger effect = lower value
[13] = target: Serine/threonine-protein kinase D1 (Homo sapiens) (UniProt Q15139); details: KINOMEscan 353-kinase binding panel, qPCR; PRKD1; at 10 µM; stronger effect = lower value
[14] = target: Serine/threonine-protein kinase PLK1 (Homo sapiens) (UniProt P53350); details: KINOMEscan 353-kinase binding panel, qPCR, at 10 µM, stronger effect = lower value
TAOK3 = details: KINOMEscan 353-kinase binding panel, qPCR, at 10 µM, stronger effect = lower value
TGFBR2 = details: KINOMEscan 353-kinase binding panel, qPCR, at 10 µM, stronger effect = lower value
[15] = target: Tyrosine-protein kinase ITK/TSK (Homo sapiens) (UniProt Q08881); details: KINOMEscan 353-kinase binding panel, qPCR, at 10 µM, stronger effect = lower value
[16] = target: Tyrosine-protein kinase Lck (Homo sapiens) (UniProt P06239); details: KINOMEscan 353-kinase binding panel, qPCR, at 10 µM, stronger effect = lower value
[17] = target: Tyrosine-protein kinase Lyn (Homo sapiens) (UniProt P07948); details: KINOMEscan 353-kinase binding panel, qPCR, at 10 µM, stronger effect = lower value
[18] = target: Vascular endothelial growth factor receptor 3 (Homo sapiens) (UniProt P35916); details: KINOMEscan 353-kinase binding panel, qPCR; FLT4; at 10 µM; stronger effect = lower value

Measured: percent of control binding

Sequence of Receptor-type tyrosine-protein kinase FLT3 (Homo sapiens) (P36888 whole entry, looked up): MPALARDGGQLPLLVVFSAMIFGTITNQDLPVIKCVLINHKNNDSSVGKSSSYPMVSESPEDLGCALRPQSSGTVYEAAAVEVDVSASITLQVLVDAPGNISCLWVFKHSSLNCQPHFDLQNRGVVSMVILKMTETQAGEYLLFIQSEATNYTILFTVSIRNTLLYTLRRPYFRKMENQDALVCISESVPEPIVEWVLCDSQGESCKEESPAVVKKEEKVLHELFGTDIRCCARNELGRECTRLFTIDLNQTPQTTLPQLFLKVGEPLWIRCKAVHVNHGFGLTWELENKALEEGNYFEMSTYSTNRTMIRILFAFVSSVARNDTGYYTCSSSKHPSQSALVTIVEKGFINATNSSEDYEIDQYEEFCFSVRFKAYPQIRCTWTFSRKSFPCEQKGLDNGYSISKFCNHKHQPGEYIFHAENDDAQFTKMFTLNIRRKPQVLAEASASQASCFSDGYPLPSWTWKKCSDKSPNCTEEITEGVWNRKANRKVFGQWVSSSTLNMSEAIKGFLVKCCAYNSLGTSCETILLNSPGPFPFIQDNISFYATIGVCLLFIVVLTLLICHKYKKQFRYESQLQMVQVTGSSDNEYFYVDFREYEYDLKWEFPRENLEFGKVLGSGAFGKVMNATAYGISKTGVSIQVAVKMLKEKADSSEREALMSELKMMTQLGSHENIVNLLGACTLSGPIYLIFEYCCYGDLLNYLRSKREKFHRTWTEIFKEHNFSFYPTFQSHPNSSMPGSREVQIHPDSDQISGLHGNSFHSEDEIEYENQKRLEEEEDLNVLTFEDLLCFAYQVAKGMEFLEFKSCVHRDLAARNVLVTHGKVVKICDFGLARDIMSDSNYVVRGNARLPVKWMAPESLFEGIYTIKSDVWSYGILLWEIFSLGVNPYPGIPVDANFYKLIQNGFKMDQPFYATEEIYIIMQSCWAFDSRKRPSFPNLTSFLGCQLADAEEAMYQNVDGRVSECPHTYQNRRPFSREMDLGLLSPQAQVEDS
Sequence of Serine/threonine-protein kinase D1 (Homo sapiens) (Q15139 whole entry, looked up): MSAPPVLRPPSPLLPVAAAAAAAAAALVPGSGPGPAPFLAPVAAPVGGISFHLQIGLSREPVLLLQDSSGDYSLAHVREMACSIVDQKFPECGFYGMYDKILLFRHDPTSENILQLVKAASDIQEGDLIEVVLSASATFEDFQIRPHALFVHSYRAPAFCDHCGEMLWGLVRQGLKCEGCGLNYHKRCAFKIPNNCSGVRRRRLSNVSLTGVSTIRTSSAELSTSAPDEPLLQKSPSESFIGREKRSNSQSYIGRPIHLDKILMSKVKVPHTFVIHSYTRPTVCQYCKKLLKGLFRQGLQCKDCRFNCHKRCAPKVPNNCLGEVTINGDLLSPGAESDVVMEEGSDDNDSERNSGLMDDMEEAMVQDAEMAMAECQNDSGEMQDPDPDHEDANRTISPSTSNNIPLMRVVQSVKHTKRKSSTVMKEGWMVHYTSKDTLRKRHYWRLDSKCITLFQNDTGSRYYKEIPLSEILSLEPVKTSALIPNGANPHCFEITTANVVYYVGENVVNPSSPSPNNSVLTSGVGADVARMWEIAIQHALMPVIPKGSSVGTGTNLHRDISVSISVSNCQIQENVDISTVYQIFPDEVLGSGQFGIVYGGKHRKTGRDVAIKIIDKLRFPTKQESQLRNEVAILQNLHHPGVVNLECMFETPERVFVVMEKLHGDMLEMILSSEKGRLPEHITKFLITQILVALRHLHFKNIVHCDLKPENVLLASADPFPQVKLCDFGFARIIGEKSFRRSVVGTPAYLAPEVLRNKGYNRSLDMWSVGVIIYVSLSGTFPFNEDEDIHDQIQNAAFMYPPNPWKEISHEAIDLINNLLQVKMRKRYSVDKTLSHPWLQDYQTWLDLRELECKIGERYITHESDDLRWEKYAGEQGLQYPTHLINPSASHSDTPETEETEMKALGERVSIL
Sequence of Mitogen-activated protein kinase 9 (Homo sapiens) (P45984 whole entry, looked up): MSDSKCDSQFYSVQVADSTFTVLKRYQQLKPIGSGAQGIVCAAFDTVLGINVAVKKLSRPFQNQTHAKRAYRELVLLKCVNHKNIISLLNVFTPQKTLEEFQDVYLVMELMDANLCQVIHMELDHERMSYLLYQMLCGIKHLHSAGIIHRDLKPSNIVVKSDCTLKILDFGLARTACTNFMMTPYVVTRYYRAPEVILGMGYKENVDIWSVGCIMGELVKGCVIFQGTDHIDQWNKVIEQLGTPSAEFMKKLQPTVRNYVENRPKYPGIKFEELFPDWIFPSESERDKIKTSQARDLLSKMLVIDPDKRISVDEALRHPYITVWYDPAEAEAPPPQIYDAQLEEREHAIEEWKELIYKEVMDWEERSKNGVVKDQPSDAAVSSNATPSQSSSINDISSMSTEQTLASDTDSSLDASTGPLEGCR
Sequence of RAF proto-oncogene serine/threonine-protein kinase (Homo sapiens) (P04049 whole entry, looked up): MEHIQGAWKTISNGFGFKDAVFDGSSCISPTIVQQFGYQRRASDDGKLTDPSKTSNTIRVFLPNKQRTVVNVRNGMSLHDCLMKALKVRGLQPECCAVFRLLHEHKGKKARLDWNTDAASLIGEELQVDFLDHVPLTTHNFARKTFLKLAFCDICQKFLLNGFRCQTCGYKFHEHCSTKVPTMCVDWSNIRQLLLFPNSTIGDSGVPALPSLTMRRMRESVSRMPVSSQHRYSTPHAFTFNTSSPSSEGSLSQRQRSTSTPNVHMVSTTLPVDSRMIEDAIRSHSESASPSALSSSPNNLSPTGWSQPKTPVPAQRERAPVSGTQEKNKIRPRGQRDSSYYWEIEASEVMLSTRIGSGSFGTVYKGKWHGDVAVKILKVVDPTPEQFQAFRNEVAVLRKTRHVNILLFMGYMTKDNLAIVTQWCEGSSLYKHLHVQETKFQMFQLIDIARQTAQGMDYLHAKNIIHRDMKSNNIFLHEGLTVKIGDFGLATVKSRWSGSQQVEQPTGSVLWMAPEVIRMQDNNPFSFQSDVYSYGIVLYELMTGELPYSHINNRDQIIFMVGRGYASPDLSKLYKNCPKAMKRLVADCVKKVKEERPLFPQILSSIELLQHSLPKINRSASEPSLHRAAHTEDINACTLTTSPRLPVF
Sequence of Mitogen-activated protein kinase 1 (Homo sapiens) (P28482 whole entry, looked up): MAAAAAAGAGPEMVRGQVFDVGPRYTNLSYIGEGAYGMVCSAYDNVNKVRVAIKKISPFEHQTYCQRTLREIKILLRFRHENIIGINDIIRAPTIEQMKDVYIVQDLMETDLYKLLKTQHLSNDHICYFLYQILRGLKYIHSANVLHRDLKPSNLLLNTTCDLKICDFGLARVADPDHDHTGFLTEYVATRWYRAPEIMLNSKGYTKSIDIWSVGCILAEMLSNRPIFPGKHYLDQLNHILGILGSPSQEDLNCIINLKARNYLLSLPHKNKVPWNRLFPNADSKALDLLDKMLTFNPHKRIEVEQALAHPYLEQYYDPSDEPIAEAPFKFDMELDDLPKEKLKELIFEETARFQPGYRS
Sequence of Cyclin-dependent kinase 8 (Homo sapiens) (P49336 whole entry, looked up): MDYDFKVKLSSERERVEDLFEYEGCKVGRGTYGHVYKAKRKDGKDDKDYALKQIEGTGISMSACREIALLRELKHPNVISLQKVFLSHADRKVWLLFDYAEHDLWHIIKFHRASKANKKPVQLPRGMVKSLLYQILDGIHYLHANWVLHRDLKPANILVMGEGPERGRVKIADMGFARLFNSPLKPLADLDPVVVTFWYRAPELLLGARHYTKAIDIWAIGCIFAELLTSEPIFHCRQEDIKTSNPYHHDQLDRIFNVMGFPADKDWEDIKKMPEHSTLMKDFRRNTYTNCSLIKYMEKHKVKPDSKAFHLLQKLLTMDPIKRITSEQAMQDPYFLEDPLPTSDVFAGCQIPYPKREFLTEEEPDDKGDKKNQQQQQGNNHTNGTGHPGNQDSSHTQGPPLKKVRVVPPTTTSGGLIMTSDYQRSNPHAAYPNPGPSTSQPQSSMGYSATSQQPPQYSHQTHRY
Sequence of Tyrosine-protein kinase Lyn (Homo sapiens) (P07948 whole entry, looked up): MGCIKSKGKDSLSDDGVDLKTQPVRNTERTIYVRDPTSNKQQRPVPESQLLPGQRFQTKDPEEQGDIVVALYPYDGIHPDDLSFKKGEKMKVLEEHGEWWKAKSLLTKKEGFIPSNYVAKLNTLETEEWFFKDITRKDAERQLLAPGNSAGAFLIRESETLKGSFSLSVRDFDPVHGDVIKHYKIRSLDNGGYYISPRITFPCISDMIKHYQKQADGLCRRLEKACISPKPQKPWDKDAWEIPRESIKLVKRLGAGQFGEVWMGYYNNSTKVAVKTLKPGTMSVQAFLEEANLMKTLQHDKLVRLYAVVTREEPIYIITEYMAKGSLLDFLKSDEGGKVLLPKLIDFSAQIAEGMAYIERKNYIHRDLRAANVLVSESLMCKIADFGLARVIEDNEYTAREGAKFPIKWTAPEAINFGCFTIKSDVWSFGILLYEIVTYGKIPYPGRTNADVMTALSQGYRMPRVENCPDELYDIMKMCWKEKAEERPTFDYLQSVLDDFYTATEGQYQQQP
Sequence of Casein kinase I isoform delta (Homo sapiens) (P48730 whole entry, looked up, canonical isoform): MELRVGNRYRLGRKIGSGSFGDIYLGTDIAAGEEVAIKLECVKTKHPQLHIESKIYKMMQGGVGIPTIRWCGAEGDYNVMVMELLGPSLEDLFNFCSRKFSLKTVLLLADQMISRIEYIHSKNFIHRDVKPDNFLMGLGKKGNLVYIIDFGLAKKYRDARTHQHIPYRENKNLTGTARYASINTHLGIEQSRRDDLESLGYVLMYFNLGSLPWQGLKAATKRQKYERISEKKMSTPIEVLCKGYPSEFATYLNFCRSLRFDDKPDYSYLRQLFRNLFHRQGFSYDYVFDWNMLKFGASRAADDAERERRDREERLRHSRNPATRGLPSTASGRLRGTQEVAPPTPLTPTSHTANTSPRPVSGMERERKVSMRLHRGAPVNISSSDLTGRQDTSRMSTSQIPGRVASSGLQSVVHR

Cc1cc2nc(NCCCO)n(CC(=O)c3cc(C(C)(C)C)c(O)c(C(C)(C)C)c3)c2cc1C
inactive: [1] 100% | CAMK4 100% | CSNK1A1L 99% | [2] 99% | [3] 95% | [4] 93% | DLK 82% | [5] 98% | ERK8 100% | FGFR4 81% | [6] 100% | JAK1(Kin.Dom.2) 90% | JNK1 100% | [7] 100% | MLK1 100% | MYO3B 65% | [8] 89% | [9] 100% | NDR2 100% | PFTK1 88% | [10] 43% | RPS6KA2(Kin.Dom.1) 90% | RPS6KA6(Kin.Dom.2) 100% | [11] 100% | [11]; FLT3(D835H) 100% | [11]; FLT3(D835Y) 99% | [11]; FLT3(ITD) 100% | [11]; FLT3(K663Q) 100% | [11]; FLT3(N841I) 94% | [12] 100% | STK35 100% | [13] 100% | [14] 67% | TAOK3 99% | TGFBR2 100% | [15] 100% | [16] 100% | [17] 88% | [18] 100%
